Results reported in patent US20080188528A1, “Modulators of C3a receptor and methods of use thereof” (priority 2006, published 2008).
Counter-ions that a name gives are not always drawn.

What follows are molecules tested against T1, human C3a receptor (C3aR) (Homo sapiens, UniProt Q16581) (assay: Inhibition of human [125I]-C3a binding to human C3a receptor (SPA, membranes of HEK293 cells expressing recombinant C3aR)). Settings: 0.1 nM [125I]-C3a, 3 hours at room temperature; Table 1.
T1 construct: expressed in transfected cells
T1 sequence (Q16581 1-482): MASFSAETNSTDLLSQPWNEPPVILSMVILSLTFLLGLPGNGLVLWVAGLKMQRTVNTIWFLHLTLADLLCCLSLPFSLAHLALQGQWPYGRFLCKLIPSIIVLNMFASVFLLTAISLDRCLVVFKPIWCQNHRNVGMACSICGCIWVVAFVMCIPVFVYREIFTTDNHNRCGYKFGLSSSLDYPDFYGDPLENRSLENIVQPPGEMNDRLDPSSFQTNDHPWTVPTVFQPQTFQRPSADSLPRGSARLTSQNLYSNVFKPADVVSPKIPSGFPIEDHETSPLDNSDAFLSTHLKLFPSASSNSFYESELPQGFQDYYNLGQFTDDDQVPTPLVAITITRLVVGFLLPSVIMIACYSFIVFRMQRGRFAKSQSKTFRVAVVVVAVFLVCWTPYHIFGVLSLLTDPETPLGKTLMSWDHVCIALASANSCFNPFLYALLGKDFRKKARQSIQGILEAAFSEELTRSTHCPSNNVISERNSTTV
Description: Inhibition of human [^125I]-C3a binding to human C3a receptor
Binding of human [^125I]-C3a to human C3a receptor (C3aR) was done using cell membranes from HEK293 cells stably expressing recombinant C3aR, in a homogeneous scintillation proximity assay (SPA). The C3aR cell membranes were pre-coupled over-night at 4° C. to WGA-PVT SPA beads (Amersham) at a ratio of 10 μg cell membrane to 0.5 mg beads/assay. Assay was performed in 96-well microtiter Optiplates (Packard) by mixing coupled beads and 0.1 nM [^125I]-C3a (2200 Ci/mmol, Perkin Elmer Life Sciences), in a total volume of […] binding buffer (20 mM HEPES, pH 7.4, 125 mM NaCl, 5 mM KCl, 1 mM CaCl2, 1 mM MgCl2, 0.25% BSA, 0.2% CHAPS). Test compounds were diluted in DMSO and were tested for their inhibitory potential in the assay (final concentration≦1% DMSO). Incubation was done for 3 hours at room temperature followed by reading in a TopCount scintillation microplate reader. Non-specific binding was determined by adding 1 μM unlabeled C3a (Calbiochem) to the assay mixture. Calculation of the IC50 was done as above using a nonlinear least square fitting program, with Graphpad Prism.

SMILES	IC50
N=C(N)NCCC[C@H](NC(=O)c1cccn(Cc2cccc(Cc3ccccc3)c2)c1=O)C(=O)O [Compound 24, (2S)-2-({[1-(3-benzylbenzyl)-2-oxo-1,2-dihydropyridin-3-yl]carbonyl}amino)-5-carbamimidamidopentanoic acid•TFA]	50 to 500 nM
N=C(N)NCCC[C@H](NC(=O)c1cccn(Cc2ccc(Cc3ccccc3)cc2)c1=O)C(=O)O [Compound 25, (2S)-2-({[1-(4-benzylbenzyl)-2-oxo-1,2-dihydropyridin-3-yl]carbonyl}amino)-5-carbamimidamidopentanoic acid•TFA]	50 to 500 nM
CC(C)c1ccc(-c2ccccc2Cn2cccc(C(=O)N[C@@H](CCCNC(=N)N)C(=O)O)c2=O)cc1 [Compound 30, (2S)-5-carbamimidamido-2-[({1-[(4′-isopropylbiphenyl-2-yl)methyl]-2-oxo-1,2-dihydropyridin-3-yl}carbonyl)amino]pentanoic acid•TFA]	50 to 500 nM
N=C(N)NCCC[C@H](NC(=O)c1cccn(Cc2ccccc2)c1=O)C(=O)O [Compound 1, (2S)-2-{[(1-benzyl-2-oxo-1,2-dihydropyridin-3-yl)carbonyl]amino}-5-carbamimidamidopentanoic acid•TFA]	50 to 500 nM
N=C(N)NCCC[C@H](NC(=O)c1cccn(Cc2ccc3cc(F)ccc3c2)c1=O)C(=O)O [Compound 17, (2S)-5-carbamimidamido-2-[({1-[(6-fluoro-2-naphthyl)methyl]-2-oxo-1,2-dihydropyridin-3-yl}carbonyl)amino]pentanoic acid•TFA]	< 50 nM
CC(C)c1cccc(Cn2cccc(C(=O)N[C@@H](CCCNC(=N)N)C(=O)O)c2=O)c1 [Compound 7, (2S)-5-carbamimidamido-2-({[1-(3-isopropylbenzyl)-2-oxo-1,2-dihydropyridin-3-yl]carbonyl}amino)pentanoic acid•TFA]	50 to 500 nM
N=C(N)NCCC[C@H](NC(=O)c1cccn(-c2ccc3ccccc3c2)c1=O)C(=O)O [Compound 32, (2S)-5-carbamimidamido-2-({[1-(2-naphthyl)-2-oxo-1,2-dihydropyridin-3-yl]carbonyl}amino)pentanoic acid•TFA]	50 to 500 nM
COc1ccc2cc(Cn3cccc(C(=O)N[C@@H](CCCNC(=N)N)C(=O)O)c3=O)ccc2c1 [Compound 19, (2S)-5-carbamimidamido-2-[({1-[(6-methoxy-2-naphthyl)methyl]-2-oxo-1,2-dihydropyridin-3-yl}carbonyl)amino]pentanoic acid•TFA]	50 to 500 nM

Same assay, conditions: 0.1 nM [125I]-C3a, 3 hours at room temperature; Table 2

SMILES	IC50
N=C(N)NCCC[C@@H](NC(=O)c1cccn(C(c2ccccc2)c2ccccc2)c1=O)C(=O)O [Compound 41, (2R)-5-carbamimidamido-2-({[1-(diphenylmethyl)-2-oxo-1,2-dihydropyridin-3-yl]carbonyl}amino)pentanoic acid•TFA]	< 50 nM

Same assay, conditions: 0.1 nM [125I]-C3a, 3 hours at room temperature; Table 3

SMILES	IC50
N=C(N)NCCC[C@H](NC(=O)c1cccc(=O)n1Cc1ccccc1)C(=O)O [Compound 55, (2S)-2-{[(1-benzyl-6-oxo-1,6-dihydropyridin-2-yl)carbonyl]amino}-5-carbamimidamidopentanoic acid•TFA]	50 to 500 nM

Same assay, conditions: 0.1 nM [125I]-C3a, 3 hours at room temperature; Table 4

SMILES	IC50
NC(=O)CC[C@H](NC(=O)c1cccn(C(c2ccccc2)c2ccccc2)c1=O)C(=O)O [Compound 64, (2S)-5-amino-2-({[1-(diphenylmethyl)-2-oxo-1,2-dihydropyridin-3-yl]carbonyl}amino)-5-oxopentanoic acid]	500 to 20000 nM
NCCCC[C@H](NC(=O)c1cccn(Cc2ccccc2)c1=O)C(=O)O [Compound 60, (2S)-6-amino-2-{[(1-benzyl-2-oxo-1,2-dihydropyridin-3-yl)carbonyl]amino}hexanoic acid•TFA]	500 to 20000 nM
N=C(N)NCC[C@H](NC(=O)c1cccn(C(c2ccccc2)c2ccccc2)c1=O)C(=O)O [Compound 65, (2S)-4-carbamimidamido-2-({[1-(diphenylmethyl)-2-oxo-1,2-dihydropyridin-3-yl]carbonyl}amino)butanoic acid•TFA]	50 to 500 nM
CCOC(=O)N=C(NCCC[C@H](NC(=O)c1cccn(C(c2ccccc2)c2ccccc2)c1=O)C(=O)O)NC(C)C [Compound 82, (2S)-2-({[1-(diphenylmethyl)-2-oxo-1,2-dihydropyridin-3-yl]carbonyl}amino)-5-{[{(ethoxycarbonyl)amino}(isopropylamino)methylene]amino}pentanoic acid]	50 to 500 nM
Cc1c(C)c(S(=O)(=O)NC(=N)Nc2cccc([C@H](NC(=O)c3cccn(Cc4ccccc4)c3=O)C(=O)O)c2)c(C)c2c1OC(C)(C)CC2 [Compound 78, (2S)-{[(1-benzyl-2-oxo-1,2-dihydropyridin-3-yl)carbonyl]amino}(3-{[(2,2,5,7,8-pentamethyl-3,4-dihydro-2H-chromen-6-yl)sulfonyl]carbamimidamido}phenyl)acetic acid]	500 to 20000 nM

Same assay, conditions: 0.1 nM [125I]-C3a, 3 hours at room temperature; Table 6

SMILES	IC50
CC(=N)NCCC[C@H](NC(=O)c1ccc(C(c2cccc(C(F)(F)F)c2)c2cccc(C(F)(F)F)c2)s1)C(=O)O [Compound 130, (2S)-2-{[(5-{Bis[3-(trifluoromethyl)phenyl]methyl}thiophen-2-yl)carbonyl]amino}-5-(ethanimidoylamino)pentanoic acid]	500 to 20000 nM
N=C(N)NC(=O)CC[C@H](NC(=O)c1ccc(C(c2ccccc2)c2ccccc2)s1)C(=O)O [Compound 99, (2S)-5-Carbamimidamido-2-({[5-(diphenylmethyl)thiophen-2-yl]carbonyl}amino)-5-oxopentanoicacid]	< 50 nM
CC(=N)NCCC[C@H](NC(=O)c1cccn(Cc2cccc(C(F)(F)F)c2)c1=O)C(=O)O [Compound 106, (2S)-5-(ethanimidoylamino)-2-[({2-oxo-1-[3-(trifluoromethyl)benzyl]-1,2-dihydropyridin-3-yl}carbonyl)amino]pentanoic acid•TFA]	50 to 500 nM
CC(=N)NCCC[C@H](NC(=O)c1ccc(C(c2ccc(Cl)cc2)c2ccc(Cl)cc2)s1)C(=O)O [Compound 125, (2S)-2-[({5-[bis(4-chlorophenyl)methyl]thiophen-2-yl}carbonyl)amino]-5-(ethanimidoylamino)pentanoic acid•TFA]	50 to 500 nM
CC(=N)NCCC[C@H](NC(=O)c1ccc(C(c2ccccc2)c2ccccc2)o1)C(=O)O [Compound 102, (2S)-2-({[5-(Diphenylmethyl)furan-2-yl]carbonyl}amino)-5-(ethanimidoylamino)pentanoic acid]	50 to 500 nM
N=C(NCCC[C@H](NC(=O)c1ccc(C(c2ccccc2)c2ccccc2)s1)C(=O)O)C1CC1 [Compound 121, (2S)-5-{[cyclopropyl(imino)methyl]amino}-2-({[5-(diphenylmethyl)thiophen-2-yl]carbonyl}amino)pentanoic acid•TFA]	500 to 20000 nM
CC(=N)NCCC[C@H](NC(=O)c1ccc(C(c2ccccc2)c2ccccc2)s1)C(=O)O [Compound 103, (2S)-2-({[5-(diphenylmethyl)thiophen-2-yl]carbonyl}amino)-5-(ethanimidoylamino)pentanoic acid•TFA]	50 to 500 nM
N=C(N)NCCC[C@H](NC(=O)c1ccc(C(O)(c2ccccc2)c2ccccc2)s1)C(=O)O [Compound 98, (2S)-5-Carbamimidamido-2-[({5-[hydroxy(diphenyl)methyl]thiophen-2-yl}carbonyl)amino]pentanoic acid]	< 50 nM
CC(=N)NCCC[C@H](NC(=O)c1cccn(Cc2cc(Cl)cc(Cl)c2)c1=O)C(=O)O [Compound 116, (2S)-2-({[1-(3,5-dichlorobenzyl)-2-oxo-1,2-dihydropyridin-3-yl]carbonyl}amino)-5-(ethanimidoylamino)pentanoic acid•TFA]	< 50 nM
CC(=N)NCC[C@H](NC(=O)c1cccn(C(c2ccccc2)c2ccccc2)c1=O)C(=O)O [Compound 94, (2S)-2-({[1-(diphenylmethyl)-2-oxo-1,2-dihydropyridin-3-yl]carbonyl}amino)-4-(ethanimidoylamino)butanoic acid•TFA]	50 to 500 nM
CC(=N)NCCC[C@H](NC(=O)c1ccc(C(c2cccs2)c2cccs2)s1)C(=O)O [Compound 127]	50 to 500 nM
CC(C)(C)Cn1cccc(C(=O)N[C@@H](CCCNC(=N)N)C(=O)O)c1=O [Compound 90, (2S)-5-carbamimidamido-2-({[1-(2,2-dimethylpropyl)-2-oxo-1,2-dihydropyridin-3-yl]carbonyl}amino)pentanoic acid•TFA]	< 50 nM
